Results published in patent US10392398B2, “Inhibitors of Late SV40 Factor (LSF) as cancer chemotherapeutics” (TRUSTEES OF BOSTON UNIVERSITY, priority 2010, dated 2019).
≈ marks a conversion by molar mass, not a printed value. Where two headings read alike, the source gives them in different places.

Assays:
[1] = target: T1, LSF (Homo sapiens, UniProt Q12800); test: Electrophoretic mobility shift assay (EMSA) of LSF DNA-binding; format: biochemical; conditions: in vitro translated LSF
T1 sequence (Q12800 1-502): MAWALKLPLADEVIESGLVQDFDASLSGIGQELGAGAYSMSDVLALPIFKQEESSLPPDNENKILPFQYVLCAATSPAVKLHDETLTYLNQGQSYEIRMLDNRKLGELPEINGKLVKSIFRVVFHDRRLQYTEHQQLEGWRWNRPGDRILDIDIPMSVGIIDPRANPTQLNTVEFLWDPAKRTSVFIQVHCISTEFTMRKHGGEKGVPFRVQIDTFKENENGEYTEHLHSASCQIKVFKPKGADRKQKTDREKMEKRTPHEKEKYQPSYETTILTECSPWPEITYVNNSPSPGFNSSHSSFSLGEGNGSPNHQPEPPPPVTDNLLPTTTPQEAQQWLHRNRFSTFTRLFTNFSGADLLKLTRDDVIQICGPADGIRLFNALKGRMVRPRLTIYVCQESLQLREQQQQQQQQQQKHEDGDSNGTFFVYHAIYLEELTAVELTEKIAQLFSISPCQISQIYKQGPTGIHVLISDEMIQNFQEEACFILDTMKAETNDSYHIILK
Method: LSF was translated in vitro as previously described^16 for use in EMSAs. Protein was preincubated with inhibitor or DMSO and then incubated with 0.5 μg poly d(I-C) for 15 min at 4° C. in 40 mM KCl, 15 mM HEPES pH 7.9, 1 mM EDTA, 0.5 mM DTT, 5% glycerol. Finally, radiolabelled double-stranded DNA ([…]—SEQ ID NO: 5- and its complement) were added for a 30-min incubation at 30° C. Results were visualized using a PhosphorImager and quantified using ImageQuant software.

[2] = tested on: HeLa cells; test: Cell proliferation assay (MTS), HeLa; format: cell-based; conditions: Homo sapiens
Method: (§1) Cells were plated at 3×10^4 cells/mL, A549 and HeLa, and 1×10^4 cells/mL, NIH/3T3, in 96-well plates and incubated for 24 h to allow for cell adhesion. LSF-library compounds were dissolved in DMSO, serial diluted in appropriate medium and added to cells in triplicate (2 plates). DMSO was added to control wells at a final concentration of 1%. After 72 h incubation in the presence of compound, confluent cells were assayed for growth proliferation with CellTiter 96® AQueous One Solution Cell Proliferation Assay (MTS) (Promega) according to the manufacturer's protocol. Plates were read at 490 nm on a microplate reader, and IC50 values were determined as the percentage of compound-treated cell growth to control cell growth. HCC cells—one hour after plating HCC cells onto 96-well plates, compound or vehicle (DMSO) was added to the desired concentrations, keeping DMSO at 0.5%. At indicated time points, cell viability was assayed using the CellTiter 96® Non-Radioactive Cell Proliferation Assay (MTT) (Promega).

[3] = tested on: QGY-7703 HCC cells; test: HCC cell viability (MTT), QGY-7703; format: cell-based
Method: as §1

[4] = tested on: QGY-7703 cells; test: TUNEL apoptosis assay, QGY-7703; format: cell-based; conditions: QGY-7703, 10 μM
Method: HCC cells were plated 24 h prior to incubation with FQI1. At the indicated time points, cells were analyzed using the FragEL™ DNA fragmentation kit (Calbiochem) according to the manufacturer's protocol. Flow cytometry was performed using a FACS caliber (Becton Dickinson) and analyzed with Cell Quest software.

[5] = Kinetic solubility, turbidity based assay; format: physicochemical; conditions: PBS buffer, 37 °C, pH 7.2, aqueous buffer, kinetic from dmso stock, 1×PBS pH 7.2, 1% DMSO, read-out: kinetic solubility, concentration at which precipitates first showed
Method: Kinetic solubility was measured via a turbidity based assay method (Kerns, E. et al. Automation in Pharmaceutical Profiling. Journal of Laboratory Automation (2005) 10, 114-123). 198 μL of 1×PBS (137 mM NaCl, 2.7 mM KCl, 10 mM Na2HPO4, 2 mM KH2PO4, pH 7.2) was added to the wells of a 96-well plate. FQI-34 (either dried or air-exposed (9% water as determined by NMR)) was dissolved in DMSO for 30 mM final concentration immediately before testing. The 30 mM stock was further diluted in DMSO appropriately for the desired final concentration to be tested in the solubility assay. 2 μL of the DMSO solutions were added to the 96-well plate such that DMSO was kept to 1%. The plate was sealed and gently shaken, and allowed to incubate at 37° C. for 2 hours, after which the absorbance at 620 nm was taken. The concentration at which the absorbance was greater than or equal to 0.01 absorbance units was taken as the precipitation point.

SMILES	modulation of LSF DNA-binding in EMSA [1]	IC50 ([2]; HeLa, Example 7, FIG. 8, read-out: growth inhibition of HeLa Cell Line IC50) [nM]	GI50 ([2]; 72 h, MTS) [µM]	effect of exogenous thymidine on treated cell viability profiles ([3]; QGY-7703, 20 μM thymidine)	concentration at which decrease in HCC cell viability was observable ([3]; QGY-7703, between 24 and 48 hours) [µM]	cellular proliferation of QGY-7703 cells (MTT) ([3]; in words)	apoptosis in flow cytometric TUNEL assay [4] [%]	solubility kinetic at 2 h ([5]; air-exposed (9% water)) [µM]	solubility kinetic at 2 h ([5]; dry) [µM]
CCOc1ccccc1C1CC(=O)Nc2cc3c(cc21)OCO3 (racemic) [FQI1, 8-(2-ethoxyphenyl)-7,8-dihydro-[1,3]dioxolo[4,5-g]quinolin-6(5H)-one]	initial enhancement at low concentrations and inhibition at higher concentrations	790 ± 35	0.79	not affected	2	decreased overall cellular proliferation	90	–	–
CCOc1cc(N(C)C)ccc1C1CC(=O)Nc2cc3c(cc21)OCO3 (stereo not drawn) [FQI-34, 8-(4-(dimethylamino)-2-ethoxyphenyl)-7,8-dihydro-[1,3]dioxolo[4,5-g]quinolin-6(5H)-one]	–	–	–	–	–	–	–	100 (≈ 35.4 µg/mL)	150 (≈ 53.2 µg/mL)
